Measured values from patent US10316056B2, “Chemical compounds and use thereof for improving muscular quality” (BIOPHYTIS, priority 2014, dated 2019).

Assays:
MyoD transcripts = test: Mice subjected to a high-fat diet: MyoD transcripts of the Soleus muscle; type: in vivo, C57BL/6J mice; conditions: 5 mg/kg orally; high-fat diet for 6 weeks; FIG. 5A
Protocol: (§1) The 20E as comparative compound and the compounds according to the invention (Nos. 51 and 93) were administered orally, at a dose of 5 mg/kg of body weight, to 12-week-old C57BL/6J mice subjected to a high-fat diet for 6 weeks. The effect of the compounds on the weight and the amount of proteins of the Soleus muscle and also the transcripts of genes involved in myogenesis were evaluated.
(§2) Myogenesis, which is the process for forming muscle tissues, is controlled by several myogenic transcription factors which act as end effectors of the signaling cascade and produce transcripts involved in the various stages of development. The roles of the transcription factors have been described in various journals (Sabourin and Rudnicki 2000 and Le Grand and Rudnicki 2007). The Pax7 protein (Paired-box protein 7) maintains a population of satellite cells in quiescence and, with Myf5 (Myogenic factor 5), plays a role in the expansion of activated myoblasts. The MyoD protein (Myoblast Determination protein) appears to determine the differentiation potential of activated myoblasts, and cooperates with myogenin and the MEF2 (Myocyte Enhancer Factor 2) protein to control and bring about differentiation. Finally, MRF4 (Muscle-specific Regulatory Factor 4) is required for hypertrophy, even though it probably plays other roles. […]
(§3) The relative differences in gene expression between treatments are expressed as increase or decrease in the number of cycle times [Ct] compared with the control group, the [Ct] value of each gene having been standardized with the beta-actin gene.
(§4) The in vivo study is carried out by evaluating the effect of 20E as comparative compound and of the molecules according to the invention (Nos. 51 and 93) administered orally, at a dose of 5 mg/kg of body weight, to C57BL/6 mice subjected to a high-fat diet for 6 weeks. The effect of the molecules on the weight and the amount of proteins of the Soleus muscle and also the transcripts of genes involved in myogenesis were evaluated.

[1] = system: S6 kinase (S6K1) phosphorylation in C2C12 cells; test: Phosphorylation of the S6 kinase in C2C12 cells (ELISA pS6K T389), protein synthesis; type: cell-based, mouse; conditions: Mus musculus, C2C12, 2 h; for activity at 10 µM: read-out: Protein synthesis (percentage increase in S6K phosphorylation in muscle cells); for activity: test compounds and 20E reference (10 μM), read-out: S6K1 phosphorylation level
Myf5 gene transcripts = test: Mice subjected to a high-fat diet: Myf5 transcripts; type: in vivo, C57BL/6J mice; conditions: 5 mg/kg orally; high-fat diet for 6 weeks
Protocol: as §1, §2, §3, §4

[2] = system: Soleus muscle of C57BL/6 mice subjected to a high-fat diet; test: Mice subjected to a high-fat diet: weight and amount of proteins of the Soleus muscle; type: in vivo, C57BL/6J mice; conditions: 5 mg/kg orally; high-fat diet for 6 weeks; compared with the control group; FIG. 3B
Protocol: as §1
The amount of proteins is determined by first lysing the muscles sampled in a 0.1N NaOH solution with the FastPrep technique. The proteins are quantified by means of a colorimetric assay derived from the Lowry method.
as §4

SMILES	transcripts of the MyoD gene (MyoD transcripts)	activity at 10 µM [1]	activity [1]	transcripts of the Myf5 gene (Myf5 gene transcripts)	amount of proteins of the Soleus muscle [2]
CCC(CC)C(=O)N(CCOC)C(C)[C@H]1CC[C@@]2(O)C3=CC(=O)[C@@H]4C[C@@H](O)[C@@H](O)C[C@]4(C)C3CC[C@]12C (stereo partly drawn) [Compound 51, 2-ethyl-N-(2-methoxyethyl)-N-[1-[(2S,3R,5R,10R,13R,14S,17S)-2,3,14-trihydroxy-10,13-dimethyl-6-oxo-2,3,4,5,9,11,12,15,16,17-decahydro-1H-cyclopenta[a]phenanthren-17-yl]ethyl]butanamide]	increase	110 to 129%	~120%	increase	–
CCSCC(=O)[C@H]1CC[C@@]2(O)C3=CC(=O)[C@@H]4C[C@@H](O)[C@@H](O)C[C@]4(C)C3CC[C@]12C (stereo partly drawn) [Compound 93, (2S,3R,5R,10R,13R,14S,17S)-17-(2-ethylsulfanylacetyl)-2,3,14-trihydroxy-10,13-dimethyl-2,3,4,5,9,11,12,15,16,17-decahydro-1H-cyclopenta[a]phenanthren-6-one]	increase	> 130%	130 to 140%	increase	significant increase
